The test system of one data set is Aspergillus niger 16404. The experiment in a line: High resolution minimum inhibitory concentration (HRMIC) test, A. niger. The data set is classed as cell-based. As to conditions: for control of fungal organisms (A. niger): result in words; for MIC (ppm) A. niger: ppm active ingredient, M9GY medium, 30° C., 24 hours, average of multiple determinations. How it is done:
(§1) Biological Activity: certain compounds of the present invention were tested for activity against three microorganisms, Escherichia coli 8739 (Gram-negative bacterium) and Staphylococcus aureus 6538 (Gram-positive bacterium) and Aspergillus niger 16404.
(§2) The lowest concentration of test compound required to inhibit Staphylococcus aureus 6538, Escherichia coli 8739 and Aspergillus niger 16404 was determined by a high resolution minimum inhibitory concentration (HRMIC) test. Varying amounts of the test compounds were added to minimal salts glucose medium (see T. Maniatis, E. F. Fritsch and J. Sambrook, Molecular Cloning, p 68 (1982)) supplemented with 0.1% yeast extract (M9GY) in a 96-well microtiter plate. […] serial dilutions were performed on a Biomek™ 2000 Workstation to obtain a range of closely spaced concentrations of test compound as shown in Table 1 (based on dilutions of a 10,000 ppm active ingredient stock solution of the test compound). The plates were inoculated with cell suspension of inoculum and adjusted to provide about 10^6 CFU (colony forming units)/ml in each well. The microtiter plates were incubated at 30° C. for 24 hours and then checked (optical density at 650 nm using a microplate reader) for the presence or absence of microbial growth in each well. […] Data reported (ppm active ingredient) are the average of multiple determinations (see Table 2).

The test system of data set [1] is Staphylococcus aureus 6538. Description: High resolution minimum inhibitory concentration (HRMIC) test, S. aureus. The data set is classed as cell-based. To be noted: for MIC (ppm) S. aur: ppm active ingredient, M9GY medium, 30° C., 24 hours, average of multiple determinations. How it is done:
as §1, §2

The next data set deals with Escherichia coli 8739. The experiment in a line: High resolution minimum inhibitory concentration (HRMIC) test, E. coli. The data set is classed as cell-based. To be noted: ppm active ingredient; M9GY medium, 30° C., 24 hours; average of multiple determinations. How it is done:
as §1, §2

Some results are limits rather than exact numbers.

In general, melting point refers to the temperature of the solid-liquid transition.

With `Cn1sc(Sc2cccc[n+]2[O-])cc1=O` [Compound 3, [2-methyl-3-isothiazolon-5-yl]-(1-oxypyridin-2-yl)sulfide], the melting point was 141 to 143 °C. The “control of fungal organisms (A. niger)” value with Aspergillus niger 16404 is listed as “effective control”.

Consider `CCCCCCCCn1sc(Sc2cccc[n+]2[O-])c(Cl)c1=O` [Compound 5, [4-chloro-2-n-octyl-3-isothiazolon-5-yl]-(1-oxypyridin-2-yl)sulfide], for which, in data set [1], the “MIC (ppm) S. aur” value came to 0.9 ppm. In addition, the “better control versus Gram-positive (S. aur) bacteria than compound 6” value in data set [1] (relative to compound 6, from Table 2 MIC) is reported as 5 fold. For the same molecule, the “MIC (ppm) E. coli” value against Escherichia coli 8739 is reported as 30 ppm. For the same molecule, in the data set with Aspergillus niger 16404, the “MIC (ppm) A. niger” value is recorded as 10 ppm and the “control of fungal organisms (A. niger)” value is reported as “effective control”.

As for `Cn1sc(Sc2nc3ccccc3s2)cc1=O` [Compound 6, [2-methyl-3-isothiazolon-5-yl]-(benzothiazol-2′-yl)sulfide, reference compound], in data set [1], the “MIC (ppm) S. aur” value was found to be 5 ppm. The “MIC (ppm) E. coli” value in the data set with Escherichia coli 8739 was over 1000 ppm. The “MIC (ppm) A. niger” value in the data set with Aspergillus niger 16404 is recorded as 15 ppm.
